Results taken from patent publication US20130289070A1, “Use of Levocabastine for Modulating Generation of Pro-Inflammatory Cytokines” (Bausch & Lomb Incorporated, priority 2007, published 2013).

Tested on: EoL-1 (human eosinophilic leukaemia cell line) cells
Assay: TNF-α-induced cytokine release, non-differentiated EoL-1 cells (NO PMA) (Luminex)
Type: cell-based
Design: key to Fractalkine (NO PMA), p of decrement / IL-1α (NO PMA), p of decrement / IL-1β (NO PMA), p of decrement / IL-1ra (NO PMA), p of decrement / IL-5 (NO PMA), p of decrement / IL-7 (NO PMA), p of decrement / IL-8 (NO PMA), p of decrement / IP-10 (NO PMA), p of decrement / MCP-1 (NO PMA), p of decrement / MIP-1β (NO PMA), p of decrement / VEGF (NO PMA), p of decrement: ns = non significant
Procedure: EoL-1 (human eosinophilic leukaemia cell line) cells (Saito et al., 1985; Mayumi, 1992) were maintained in RPMI-1640 medium with L-glutamine supplemented with 10% (v/v) FBS at 37° C. in a humidified atmosphere with 5% CO2. Where indicated, 24 h before the experiment 25 ng/mL PMA ((phorbol 12-myristate 13-acetate, purchased from Sigma Aldrich) was added to the medium to induce eosinophil granulation and differentiation (Ohtsu et al., 1993; Zimmermann et al., 2000).
Half-million cells were aliquoted per point in a 24 well plate; each experiment was performed in triplicate and carried out in parallel with eosinophils differentiated and non differentiated with PMA (25 ng/mL, 24 h). Cells were suspended in low serum medium (RPMI-1640, 0.1% (v/v) FBS). TNF-α was used to induce cytokine secretion as previously described by Steube et al. (2000), and the net release was obtained by comparison to the basal (non-TNF-α treated). In the first experiment we evaluated the concentration and time relation between TNF-α stimulation and cytokine release. Therefore, 5, 10, and 25 ng/mL of TNF-α was administered to the cells at 0, ½, 1, 2, 3, 6, 12 and 24 h (data not shown). An aliquot of 150 μL of supernate was collected for cytokines' analysis. […] Differentiated and non-differentiated EoL-1 cells were exposed from 0.1 to 2.3 mM levocabastine ([…]Levocabastine 0.05% solution eye drops containing cyclodextrins, without benzalkonium chloride), and aliquots of the supernates were collected after 12 and 24 h. The content of cytokines at time zero was estimated by treating the cells with 400 nM calcimycin (A-23187), which is a cytolytic agent that frees all the mediators from the cytoplasmic compartment. In addition, for each experiment we tested the effect of the vehicle, which was added to the wells in a concentration equal to the maximum amount used for drug dilution.
Samples (supernates 12 and 24 h) in triplicate were analyzed using Luminex 200™ (Luminex, Austin, Tex.) and Beadview software v1.0 (Upstate Cell Signaling Solutions, Temecula, Calif.).
All data are presented as mean±SEM for the indicated number of experiments. Statistical significance was determined by Newman-Keuls test after ANOVA using GraphPad Prism (version 3.0; GraphPad Software Inc., San Diego, Calif., USA). P-values<0.05 were considered to be significant.

[1] = 12 h, TNF-α 5 ng + Levocabastine 2 mM vs TNF-α
[2] = 12 h, TNF-α 10 ng + Levocabastine 2 mM vs TNF-α
[3] = 12 h, TNF-α 20 ng + Levocabastine 2 mM vs TNF-α
[4] = 12 h, TNF-α 5, 10, 20 ng + Levocabastine 2 mM vs TNF-α

For `C[C@@H]1CN([C@H]2CC[C@](C#N)(c3ccc(F)cc3)CC2)CC[C@]1(C(=O)O)c1ccccc1` [Levocabastine, levocabastine], the “release of IL-1-ra induced by TNF-α” value (2 mM, TNF-α 10 ng, 24 h, not exposed to PMA, not influenced by VCAM-1 or fibronectin (FIG. 11)) was “effective in reducing the release”, the “release of IL-6 induced by TNF-α” value (2 mM, TNF-α 10 ng, 24 h, not exposed to PMA, not influenced by VCAM-1 or fibronectin (FIG. 12)) was “effective in reducing the release” and the “release of IL-8 induced by TNF-α” value (2 mM, TNF-α 10 ng, 24 h, not exposed to PMA, not influenced by VCAM-1 or fibronectin (FIG. 13)) was “effective in reducing the release”. For the same compound, the “release of IL-12-P40 induced by TNF-α” value (2 mM, TNF-α 5, 10 and 20 ng, 24 h, without PMA (FIG. 7)) was “capable of reducing the release”, the “GM-CSF (NO PMA), p of decrement” value [1] was “ns” and the “IL-1β (NO PMA), p of decrement” value [1] was “ns”. The “IL-5 (NO PMA), p of decrement” value [1] was “ns”, the “IL-6 (NO PMA), p of decrement” value [1] was “ns” and the “IL-7 (NO PMA), p of decrement” value [1] was “ns”. For the same compound, the “IL-8 (NO PMA), p of decrement” value [1] was “ns”, the “IL-10 (NO PMA), p of decrement” value [1] was “ns” and the “IL-12p40 (NO PMA), p of decrement” value [1] was “P < 0.001”. For the same compound, the “MCP-1 (NO PMA), p of decrement” value [1] was “ns”, the “TGF-α (NO PMA), p of decrement” value [1] was “ns” and the “VEGF (NO PMA), p of decrement” value [1] was “P < 0.01”. For the same compound, the “GM-CSF (NO PMA), p of decrement” value [2] was “ns”, the “IL-1β (NO PMA), p of decrement” value [2] was “ns” and the “IL-5 (NO PMA), p of decrement” value [2] was “ns”. The “IL-6 (NO PMA), p of decrement” value [2] was “ns”, the “IL-7 (NO PMA), p of decrement” value [2] was “ns” and the “IL-8 (NO PMA), p of decrement” value [2] was “ns”. For the same compound, the “IL-10 (NO PMA), p of decrement” value [2] was “ns”, the “IL-12p40 (NO PMA), p of decrement” value [2] was “P < 0.001” and the “MCP-1 (NO PMA), p of decrement” value [2] was “ns”. The “TGF-α (NO PMA), p of decrement” value [2] was “ns”, the “VEGF (NO PMA), p of decrement” value [2] was “P < 0.01” and the “GM-CSF (NO PMA), p of decrement” value [3] was “ns”. The “IL-1β (NO PMA), p of decrement” value [3] was “ns”, the “IL-5 (NO PMA), p of decrement” value [3] was “ns” and the “IL-6 (NO PMA), p of decrement” value [3] was “ns”. For the same compound, the “IL-7 (NO PMA), p of decrement” value [3] was “ns”, the “IL-8 (NO PMA), p of decrement” value [3] was “ns” and the “IL-10 (NO PMA), p of decrement” value [3] was “ns”. For the same compound, the “IL-12p40 (NO PMA), p of decrement” value [3] was “P < 0.001”, the “MCP-1 (NO PMA), p of decrement” value [3] was “ns” and the “TGF-α (NO PMA), p of decrement” value [3] was “ns”. For the same compound, the “VEGF (NO PMA), p of decrement” value [3] was “P < 0.05”, the “Fractalkine (NO PMA), p of decrement” value [4] was “increase of cytokine secretion” and the “G-CSF (NO PMA), p of decrement” value [4] was “increase of cytokine secretion”. The “IL-1ra (NO PMA), p of decrement” value [4] was “increase of cytokine secretion”, the “IL-1α (NO PMA), p of decrement” value [4] was “increase of cytokine secretion” and the “IP-10 (NO PMA), p of decrement” value [4] was “increase of cytokine secretion”. For the same compound, the “MIP-1α (NO PMA), p of decrement” value [4] was “increase of cytokine secretion”, the “MIP-1β (NO PMA), p of decrement” value [4] was “increase of cytokine secretion” and the “RANTES (NO PMA), p of decrement” value [4] was “increase of cytokine secretion”. For the same compound, the “Fractalkine (NO PMA), p of decrement” value (12 h, TNF-α vs Lev 0.1 mM) was “ns”, the “IL-1ra (NO PMA), p of decrement” value (12 h, TNF-α vs Lev 0.1 mM) was “ns” and the “IL-1α (NO PMA), p of decrement” value (12 h, TNF-α vs Lev 0.1 mM) was “ns”. The “IL-1β (NO PMA), p of decrement” value (12 h, TNF-α vs Lev 0.1 mM) was “ns”, the “IL-5 (NO PMA), p of decrement” value (12 h, TNF-α vs Lev 0.1 mM) was “ns” and the “IL-7 (NO PMA), p of decrement” value (12 h, TNF-α vs Lev 0.1 mM) was “ns”. The “IL-8 (NO PMA), p of decrement” value (12 h, TNF-α vs Lev 0.1 mM) was “ns”, the “IP-10 (NO PMA), p of decrement” value (12 h, TNF-α vs Lev 0.1 mM) was “ns” and the “MCP-1 (NO PMA), p of decrement” value (12 h, TNF-α vs Lev 0.1 mM) was “ns”. The “MIP-1β (NO PMA), p of decrement” value (12 h, TNF-α vs Lev 0.1 mM) was “ns”, the “VEGF (NO PMA), p of decrement” value (12 h, TNF-α vs Lev 0.1 mM) was “ns” and the “Fractalkine (NO PMA), p of decrement” value (12 h, TNF-α vs Lev 0.5 mM) was “ns”. The “IL-1ra (NO PMA), p of decrement” value (12 h, TNF-α vs Lev 0.5 mM) was “ns”, the “IL-1α (NO PMA), p of decrement” value (12 h, TNF-α vs Lev 0.5 mM) was “ns” and the “IL-1β (NO PMA), p of decrement” value (12 h, TNF-α vs Lev 0.5 mM) was “ns”.
